From patent US8785457B2 (Cellzome Limited, priority 2009, dated 2014)

Tested on: S6RP serine-240/244 phosphorylation
Experiment: In vitro Phospho-S6 cellular assay (pS6RP S240/244) in HEK293T/17 cells
Format: cell-based
Settings: Homo sapiens, 2 hours, read-out: pS6 IC50
Excerpt: Activation of mTOR signaling results in phosphorylation of several downstream targets. In cells, mTOR exists in two different protein complexes. The mTOR Complex-1 (mTORC1) phosphorylates and activates S6 Kinase 1 (S6K1) and S6 Kinase 2 (S6K2) (also known as p70S6K) which then phosphorylate S6 Ribosomal Protein (S6RP) (also known as RPS6)3. S6RP is phosphorylated on serine 235, serine 236, serine 240 and serine 244 by both pS6K1 and pS6K2. The mTOR Complex-2 (mTORC2) phosphorylates AKT on serine 473 which activates the AKT signaling pathway.
The assay measures a test compound's inhibition of S6RP serine-240/244 phosphorylation and inhibition of Akt serine-473 phosphorylation in human embryonic kidney derived HEK293T/17 cells (ATCC CRL-11268).
The HEK293T/17 cell line is maintained in DMEM media (Invitrogen catalogue number 41965-039) supplemented with 10% FCS at 37° C. in a 5% CO2 humidified incubator.
Cells are seeded in 96-well plates at 40,000 cells/well (pS6RP S240/244 assay) or 80,000 cells/well (pAkt S473 assay) in 90 μl growth media (DMEM, 2% FCS). Plates are incubated for 1 hour in a humidified incubator to allow the cells to adhere. Cells are treated with 8 concentrations of test compounds or DMSO alone for controls (final DMSO concentration 0.1%) and incubated at 37° C. for 2 hours. Then 20 μl of 5× concentrated lysis buffer (750 mM NaCl, 100 mM Tris pH7.4, 5 mM ADTA, 5 mM EGTA, 5% Triton X-100) is added, plates are sealed and incubated for 15 minutes at 4° C. with gentle shaking. After cell lysis, 25 μl cell lysate is transferred to a MesoScale plate coated with an antibody to pS6RP Ser240/244 (MesoScale Discovery K150DGD-3) or an antibody to pAkt Ser 473 (MesoScale Discovery K151DGD-3). Plates have been blocked before by incubation with 150 μl MesoScale Discovery Blocking Solution-A for 1 hour at room temperature followed by washing with 150 μl 1× Tris wash buffer per well. After the transfer of the cell lysate to the MSD plate, the pS6RP (or pAkt) protein is captured on the coated antibody by incubation at room temperature for 1 hour with gentle shaking. After the capture step the plate is washed three times with 150 μl of 1× Tris wash buffer per well. Then 25 μl detection antibody conjugated with a Sulfo-Tag is added and incubated for 1 hour at room temperature with gentle shaking. Subsequently the antibody solution is removed and the plate is washed 3 times with 150 μl×Tris wash buffer per well and 150 μl Read buffer is added. The plates are analysed on a MSD 2400 Plate Reader (MesoScale Discovery). Data analysis is performed using nonlinear regression for a sigmoidal dose-response with a variable slope.

| Compound | IC50 |
| --- | --- |
| CC(C)C(=O)N1Cc2nc(-c3ccc(NC(=O)NC4CC4)cc3)nc(N3CCOC[C@@H]3C)c2C1 [Example 44, (S)-1-cyclopropyl-3-(4-(6-isobutyryl-4-(3-methylmorpholino)-6,7-dihydro-5H-pyrrolo[3,4-d]pyrimidin-2-yl)phenyl)urea] | 0.205 µM |
| CCCNC(=O)Nc1ccc(-c2nc3c(c(N4CCOC[C@@H]4C)n2)CN(CC2CC2)C3)cc1 [Example 49, (S)-1-(4-(6-(cyclopropylmethyl)-4-(3-methylmorpholino)-6,7-dihydro-5H-pyrrolo[3,4-d]pyrimidin-2-yl)phenyl)-3-propylurea] | 0.306 µM |
| C[C@H]1COCCN1c1nc(-c2ccc(NC(N)=O)cc2)nc2c1CN(CC1CC1)C2 [Example 48, (S)-1-(4-(6-(cyclopropylmethyl)-4-(3-methylmorpholino)-6,7-dihydro-5H-pyrrolo[3,4-d]pyrimidin-2-yl)phenyl)urea] | 0.698 µM |
| CC(C)N1Cc2nc(-c3ccc(NC(=O)NCCF)cc3F)nc(N3CCOC[C@@H]3C)c2C1 [Example 186, (S)-1-(3-fluoro-4-(6-isopropyl-4-(3-methylmorpholino)-6,7-dihydro-5H-pyrrolo[3,4-d]pyrimidin-2-yl)phenyl)-3-(2-fluoroethyl)urea] | 0.197 µM |
| CCNC(=O)Nc1ccc(-c2nc3c(c(N4CCOC[C@@H]4C)n2)CN(C(=O)C2CC2)C3)cc1 [Example 23, (S)-1-(4-(6-(cyclopropanecarbonyl)-4-(3-methylmorpholino)-6,7-dihydro-5H-pyrrolo[3,4-d]pyrimidin-2-yl)phenyl)-3-ethylurea] | 0.115 µM |
| CCN1Cc2nc(-c3ccc(NC(=O)NC4CC4)cc3)nc(N3CCOC[C@@H]3C)c2C1 [Example 36, (S)-1-cyclopropyl-3-(4-(6-ethyl-4-(3-methylmorpholino)-6,7-dihydro-5H-pyrrolo[3,4-d]pyrimidin-2-yl)phenyl)urea] | 0.113 µM |
| C[C@H]1COCCN1c1nc(-c2ccc(NC(=O)NC3CC3)cc2)nc2c1CN(C(=O)C(C)(C)C)C2 [Example 45, (S)-1-cyclopropyl-3-(4-(4-(3-methylmorpholino)-6-pivaloyl-6,7-dihydro-5H-pyrrolo[3,4-d]pyrimidin-2-yl)phenyl)urea] | 0.063 µM |
| C[C@H]1COCCN1c1nc(-c2ccc(NC(=O)NC3CC3)cc2F)nc2c1CN(S(C)(=O)=O)C2 [Example 177, (S)-1-cyclopropyl-3-(3-fluoro-4-(4-(3-methylmorpholino)-6-(methylsulfonyl)-6,7-dihydro-5H-pyrrolo[3,4-d]pyrimidin-2-yl)phenyl)urea] | 0.41 µM |
| CC(C)C(=O)N1Cc2nc(-c3ccc(NC(=O)NC4CC4)cc3F)nc(N3CCOC[C@@H]3C)c2C1 [Example 174, (S)-1-cyclopropyl-3-(3-fluoro-4-(6-isobutyryl-4-(3-methylmorpholino)-6,7-dihydro-5H-pyrrolo[3,4-d]pyrimidin-2-yl)phenyl)urea] | 0.545 µM |
| CCNC(=O)Nc1cc(F)c(-c2nc3c(c(N4CCOC[C@@H]4C)n2)CN(C(=O)OCC)C3)cc1F [Example 141, (S)-ethyl 2-(4-(3-ethylureido)-2,5-difluorophenyl)-4-(3-methylmorpholino)-5H-pyrrolo[3,4-d]pyrimidine-6(7H)-carboxylate] | 0.838 µM |
| CC(C)NC(=O)Nc1ccc(-c2nc3c(c(N4CCOC[C@@H]4C)n2)CN(CC2CC2)C3)cc1 [Example 50, (S)-1-(4-(6-(cyclopropylmethyl)-4-(3-methylmorpholino)-6,7-dihydro-5H-pyrrolo[3,4-d]pyrimidin-2-yl)phenyl)-3-isopropylurea] | 0.423 µM |
| CCNC(=O)Nc1ccc(-c2nc3c(c(N4CCOC[C@@H]4C)n2)CN(C(=O)c2ccc(F)cc2)C3)cc1 [Example 19, (S)-1-ethyl-3-(4-(6-(4-fluorobenzoyl)-4-(3-methylmorpholino)-6,7-dihydro-5H-pyrrolo[3,4-d]pyrimidin-2-yl)phenyl)urea] | 0.135 µM |
| CCNC(=O)Nc1ccc(-c2nc3c(c(N4CCOC[C@@H]4C)n2)CN(C(=O)OC(C)(C)C)C3)c(F)c1 [Example 153, (S)-tert-butyl 2-(4-(3-ethylureido)-2-fluorophenyl)-4-(3-methylmorpholino)-5H-pyrrolo[3,4-d]pyrimidine-6-(7H)-carboxylate] | 0.14 µM |
| COC(=O)N1Cc2nc(-c3ccc(NC(=O)NCCF)cc3F)nc(N3CCOC[C@@H]3C)c2C1 [Example 183, (S)-methyl 2-(2-fluoro-4-(3-(2-fluoroethyl)ureido)phenyl)-4-(3-methylmorpholino)-5H-pyrrolo[3,4-d]pyrimidine-6(7H)-carboxylate] | 0.06 µM |
| C[C@H]1COCCN1c1nc(-c2ccc(NC(=O)NC3CC3)cc2)nc2c1CCN(CC(C)(C)C)C2 [Example 41, (S)-1-cyclopropyl-3-(4-(4-(3-methylmorpholino)-7-neopentyl-5,6,7,8-tetrahydropyrido[3,4-d]pyrimidin-2-yl)phenyl)urea] | 0.12 µM |
| CNC(=O)Nc1ccc(-c2nc3c(c(N4CCOC[C@@H]4C)n2)CN(CC2CC2)C3)cc1 [Example 47, (S)-1-(4-(6-(cyclopropylmethyl)-4-(3-methylmorpholino)-6,7-dihydro-5H-pyrrolo[3,4-d]pyrimidin-2-yl)phenyl)-3-methylurea] | 0.218 µM |
| C[C@H]1COCCN1c1nc(-c2ccc(NC(=O)NC3CC3)cc2)nc2c1CCNC2 [Example 15, (S)-1-cyclopropyl-3-(4-(4-(3-methylmorpholino)-5,6,7,8-tetrahydropyrido[3,4-d]pyrimidin-2-yl)phenyl)urea] | 0.238 µM |
| CCOC(=O)N1Cc2nc(-c3ccc(NC(=O)NCCO)cc3F)nc(N3CCOC[C@@H]3C)c2C1 [Example 167, (S)-Ethyl 2-(2-fluoro-4-(3-(2-hydroxyethyl)ureido)phenyl)-4-(3-methylmorpholino)-5H-pyrrolo[3,4-d]pyrimidine-6(7H)-carboxylate] | 0.615 µM |
| COC(=O)N1Cc2nc(-c3ccc(NC(=O)NC4CC4)cc3F)nc(N3CCOC[C@H]3C)c2C1 [Example 180, (R)-methyl 2-(4-(3-cyclopropylureido)-2-fluorophenyl)-4-(3-methylmorpholino)-5H-pyrrolo[3,4-d]pyrimidine-6(7H)-carboxylate] | 0.058 µM |
| CCNC(=O)Nc1ccc(-c2nc3c(c(N4CCOC[C@@H]4C)n2)CCN(C(=O)c2ccc(F)cc2)C3)cc1 [Example 24, (S)-1-ethyl-3-(4-(7-(4-fluorobenzoyl)-4-(3-methylmorpholino)-5,6,7,8-tetrahydropyrido[3,4-d]pyrimidin-2-yl)phenyl)urea] | 0.126 µM |
| CCNC(=O)Nc1ccc(-c2nc3c(c(N4CCOCC4)n2)CN(C)C3)c(F)c1 [Example 154, 1-ethyl-3-(3-fluoro-4-(6-methyl-4-morpholino-6,7-dihydro-5H-pyrrolo[3,4-d]pyrimidin-2-yl)phenyl)urea] | 0.436 µM |
| C[C@@H]1COCCN1c1nc(-c2ccc(NC(=O)NC3CC3)cc2F)nc2c1CN(C(=O)C1CC1)C2 [Example 188, (R)-1-(4-(6-(cyclopropanecarbonyl)-4-(3-methylmorpholino)-6,7-dihydro-5H-pyrrolo[3,4-d]pyrimidin-2-yl)-3-fluorophenyl)-3-cyclopropylurea] | 0.218 µM |
| C[C@H]1COCCN1c1nc(-c2ccc(NC(=O)NC3CCC3)cc2)nc2c1CN(C)C2 [Example 55, (S)-1-cyclobutyl-3-(4-(6-methyl-4-(3-methylmorpholino)-6,7-dihydro-5H-pyrrolo[3,4-d]pyrimidin-2-yl)phenyl)urea] | 0.435 µM |
